Measurements as given in patent US8802700B2 (Vertex Pharmaceuticals Incorporated, priority 2010, dated 2014).

molecular target: T1, ΔF508-CFTR (Homo sapiens, UniProt P13569, DEL508-508); assay: Membrane potential optical assay (FRET voltage-sensor dyes, VIPR), identification of potentiator compounds; assay type: cell-based; settings: Table 3; assay not given
T1 construct: expressed in transfected cells
Outline: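 Potentiator screen measured membrane potential via FRET between CC2-DMPE donor and DiSBAC2(3), read on VIPR II. Compound went in with the first addition of chloride-free gluconate bath; cells were ΔF508-CFTR-expressing NIH3T3 mouse fibroblasts, temperature-corrected at 27 °C for 24 h.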

T1 sequence (P13569 with tags, fused parts or gaps DEL508-508): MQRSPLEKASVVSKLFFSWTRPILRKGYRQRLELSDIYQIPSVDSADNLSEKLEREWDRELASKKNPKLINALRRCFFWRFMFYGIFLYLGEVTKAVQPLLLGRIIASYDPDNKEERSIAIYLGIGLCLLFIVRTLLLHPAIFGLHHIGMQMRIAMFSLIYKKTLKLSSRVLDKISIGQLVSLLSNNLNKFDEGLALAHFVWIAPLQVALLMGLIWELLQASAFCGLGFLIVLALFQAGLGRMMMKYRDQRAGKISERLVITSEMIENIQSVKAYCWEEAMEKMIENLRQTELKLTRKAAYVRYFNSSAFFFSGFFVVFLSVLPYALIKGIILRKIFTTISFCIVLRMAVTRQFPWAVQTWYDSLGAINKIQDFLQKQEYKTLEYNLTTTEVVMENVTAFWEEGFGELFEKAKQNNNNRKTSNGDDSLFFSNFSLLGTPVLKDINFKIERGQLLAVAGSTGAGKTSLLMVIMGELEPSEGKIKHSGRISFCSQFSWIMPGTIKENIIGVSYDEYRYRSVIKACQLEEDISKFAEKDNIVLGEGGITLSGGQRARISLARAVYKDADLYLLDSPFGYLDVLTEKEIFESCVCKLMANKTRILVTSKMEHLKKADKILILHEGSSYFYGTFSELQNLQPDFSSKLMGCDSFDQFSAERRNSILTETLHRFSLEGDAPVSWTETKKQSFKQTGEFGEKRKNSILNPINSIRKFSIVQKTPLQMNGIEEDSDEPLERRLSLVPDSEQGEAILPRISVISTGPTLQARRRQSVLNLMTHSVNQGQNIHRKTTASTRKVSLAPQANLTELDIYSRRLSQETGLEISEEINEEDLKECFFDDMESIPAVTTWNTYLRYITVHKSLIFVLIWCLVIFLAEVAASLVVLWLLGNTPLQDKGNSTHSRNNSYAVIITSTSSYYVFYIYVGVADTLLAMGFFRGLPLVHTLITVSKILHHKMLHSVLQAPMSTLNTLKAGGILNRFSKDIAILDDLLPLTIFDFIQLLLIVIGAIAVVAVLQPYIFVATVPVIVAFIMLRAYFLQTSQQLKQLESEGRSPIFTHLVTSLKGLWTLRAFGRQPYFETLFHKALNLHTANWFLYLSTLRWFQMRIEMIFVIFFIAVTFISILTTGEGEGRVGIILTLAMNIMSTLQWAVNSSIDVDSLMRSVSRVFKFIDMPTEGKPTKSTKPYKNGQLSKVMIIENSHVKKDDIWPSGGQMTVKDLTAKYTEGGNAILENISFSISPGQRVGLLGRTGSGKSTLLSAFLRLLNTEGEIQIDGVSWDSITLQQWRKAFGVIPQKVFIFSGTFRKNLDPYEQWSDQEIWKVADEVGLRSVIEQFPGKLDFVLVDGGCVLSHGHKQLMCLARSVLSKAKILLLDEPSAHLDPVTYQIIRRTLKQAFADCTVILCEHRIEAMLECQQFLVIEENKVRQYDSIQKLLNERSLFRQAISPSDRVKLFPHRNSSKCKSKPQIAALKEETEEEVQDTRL

EC50 [µM] | Compound
10 to 25 | CC(=O)Nc1cccc(-c2ccccc2NC(=O)c2c[nH]c3ccccc3c2=O)c1 [Compound 25, N-[2-(3-acetylaminophenyl)phenyl]-4-oxo-1H-quinoline-3-carboxamide]

same assay, conditions: Table 3; assay not given; read-out: % Activity (% Efficacy, relative efficacy)

Compound | Emax [%]
CC(C)(C)c1cc(F)c(NC(=O)c2c[nH]c3cc(C#N)ccc3c2=O)cc1O [Compound 677, 7-cyano-N-(2-fluoro-5-hydroxy-4-tert-butyl-phenyl)-4-oxo-1H-quinoline-3-carboxamide] | 25 to 100
O=C(Nc1cccc2c1CCCC2)c1c[nH]c2ccccc2c1=O [Compound 286, 1,4-dihydro-N-(1,2,3,4-tetrahydronaphthalen-5-yl)-4-oxoquinoline-3-carboxamide] | > 100
CNc1cccc2[nH]cc(C(=O)Nc3cc(O)c(C(C)(C)C)cc3C(C)(C)C)c(=O)c12 [Compound 542, N-(5-hydroxy-2,4-ditert-butyl-phenyl)-5-methylamino-4-oxo-1H-quinoline-3-carboxamide] | > 100
COc1ccc(-c2ccccc2NC(=O)c2c[nH]c3ccccc3c2=O)c(OC)c1 [Compound 312, N-[2-(2,4-dimethoxyphenyl)phenyl]-4-oxo-1H-quinoline-3-carboxamide] | 25 to 100
COc1ccc2[nH]cc(C(=O)Nc3cc(O)c(C4(C)CCCCC4)cc3F)c(=O)c2c1 [Compound 584, N-[2-fluoro-5-hydroxy-4-(1-methylcyclohexyl)-phenyl]-6-methoxy-4-oxo-1H-quinoline-3-carboxamide] | 25 to 100
O=C(Nc1ccc2nc[nH]c2c1)c1c[nH]c2ccccc2c1=O [Compound 414, N-(3H-benzoimidazol-5-yl)-4-oxo-1H-quinoline-3-carboxamide] | < 25
O=C(Nc1ccc(C2CCCCC2)c(O)c1)c1c[nH]c2cccc(O)c2c1=O [Compound 522, N-(4-cyclohexyl-3-hydroxy-phenyl)-5-hydroxy-4-oxo-1H-quinoline-3-carboxamide] | 25 to 100
CC(C)(C)c1ccc(O)cc1NC(=O)c1c[nH]c2ccc(F)cc2c1=O [Compound 665, 6-fluoro-N-(5-hydroxy-2-tert-butyl-phenyl)-4-oxo-1H-quinoline-3-carboxamide] | 25 to 100
CCC(=O)Nc1cccc(NC(=O)c2c[nH]c3ccccc3c2=O)c1 [Compound 81, 4-oxo-N-(3-propionylaminophenyl)-1H-quinoline-3-carboxamide] | < 25
C[S+]([O-])c1ccc(-c2ccccc2NC(=O)c2c[nH]c3ccccc3c2=O)cc1 (stereo not shown) [Compound 134, N-[2-(4-methylsulfinylphenyl)phenyl]-4-oxo-1H-quinoline-3-carboxamide] | 25 to 100
CC(=O)Nc1cccc(-c2ccccc2NC(=O)c2c[nH]c3ccccc3c2=O)c1 [Compound 25, N-[2-(3-acetylaminophenyl)phenyl]-4-oxo-1H-quinoline-3-carboxamide] | 25 to 100
O=C(Nc1ccccc1Oc1ccc(Cl)cc1Cl)c1c[nH]c2ccccc2c1=O [Compound 245, N-[2-(2,4-dichlorophenoxy)phenyl]-4-oxo-1H-quinoline-3-carboxamide] | 25 to 100
CC(C)(C)c1ccc(NC(=O)c2c[nH]c3ccccc3c2=O)cc1N1CCCCC1 [Compound 510, 4-oxo-N-[3-(1-piperidyl)-4-tert-butyl-phenyl]-1H-quinoline-3-carboxamide] | 25 to 100
O=C(Nc1cccc2c1Cc1ccccc1-2)c1c[nH]c2ccccc2c1=O [Compound 18, N-(9H-fluoren-1-yl)-4-oxo-1H-quinoline-3-carboxamide] | 25 to 100
CCn1cc(C(=O)Nc2ccccc2)c(=O)c2cc(OC)ccc21 [Compound 480, 1-ethyl-6-methoxy-4-oxo-N-phenyl-1H-quinoline-3-carboxamide] | < 25
CC(C)(C)c1cc(C(C)(C)C)c(NC(=O)c2c[nH]c3cccc(N)c3c2=O)cc1O [Compound 585, 5-amino-N-(5-hydroxy-2,4-ditert-butyl-phenyl)-4-oxo-1H-quinoline-3-carboxamide] | > 100
CCC1(c2ccc(NC(=O)c3c[nH]c4ccccc4c3=O)cc2)CCC(=O)NC1=O (stereo not shown) [Compound 57, N-[4-(3-ethyl-2,6-dioxo-3-piperidyl)phenyl]-4-oxo-1H-quinoline-3-carboxamide] | > 100
Cc1ccc2[nH]cc(C(=O)Nc3cc(O)c(C4(C)CCCCC4)cc3F)c(=O)c2c1 [Compound 624, N-[2-fluoro-5-hydroxy-4-(1-methylcyclohexyl)-phenyl]-6-methyl-4-oxo-1H-quinoline-3-carboxamide] | 25 to 100
O=C(Nc1ccccc1-c1ccco1)c1c[nH]c2ccccc2c1=O [Compound 115, N-[2-(2-furyl)phenyl]-4-oxo-1H-quinoline-3-carboxamide] | 25 to 100
O=C(Nc1ccccc1-c1ccc(Cl)cc1)c1c[nH]c2ccccc2c1=O [Compound 424, N-[2-(4-chlorophenyl)phenyl]-4-oxo-1H-quinoline-3-carboxamide] | 25 to 100
CCOc1ccccc1-c1cc(C(C)(C)C)c(O)cc1NC(=O)c1c[nH]c2ccccc2c1=O [Compound 23, N-[2-(2-ethoxyphenyl)-5-hydroxy-4-tert-butyl-phenyl]-4-oxo-1H-quinoline-3-carboxamide] | 25 to 100
CCCc1ccc(NC(=O)c2c[nH]c3ccccc3c2=O)cc1NS(C)(=O)=O [Compound 340, N-(3-methylsulfonylamino-4-propyl-phenyl)-4-oxo-1H-quinoline-3-carboxamide] | 25 to 100
O=C(Nc1ccc2c(c1)OC(F)(F)C(F)(F)O2)c1c[nH]c2ccccc2c1=O [Compound 440, N-(2,2,3,3-tetrafluoro-2,3-dihydrobenzo[b][1,4]dioxin-6-yl)-1,4-dihydro-4-oxoquinoline-3-carboxamide] | 25 to 100
Cc1ccc2c(=O)c(C(=O)Nc3cc(O)c(C4(C)CCCCC4)cc3F)c[nH]c2c1 [Compound 499, N-[2-fluoro-5-hydroxy-4-(1-methylcyclohexyl)-phenyl]-7-methyl-4-oxo-1H-quinoline-3-carboxamide] | 25 to 100
CC1(C)CCCNc2cc(NC(=O)c3c[nH]c4ccccc4c3=O)ccc21 [Compound 35, 1,4-dihydro-N-(2,3,4,5-tetrahydro-5,5-dimethyl-1H-benzo[b]azepin-8-yl)-4-oxoquinoline-3-carboxamide] | 25 to 100
O=C(Nc1ccc2c(c1)OCO2)c1c[nH]c2ccccc2c1=O [Compound 437, N-benzo[1,3]dioxol-5-yl-4-oxo-1H-quinoline-3-carboxamide] | < 25
O=C(Nc1ccc2[nH]nnc2c1)c1c[nH]c2ccccc2c1=O [Compound 256, N-(1H-benzotriazol-5-yl)-4-oxo-1H-quinoline-3-carboxamide] | < 25
CCOc1ccccc1-c1cc2cc[nH]c2cc1NC(=O)c1c[nH]c2ccccc2c1=O [Compound 327, N-[5-(2-ethoxyphenyl)-1H-indol-6-yl]-4-oxo-1H-quinoline-3-carboxamide] | 25 to 100
CCc1cc2cc[nH]c2cc1NC(=O)c1c[nH]c2cccc(O)c2c1=O [Compound 591, N-(5-ethyl-1H-indol-6-yl)-5-hydroxy-4-oxo-1H-quinoline-3-carboxamide] | 25 to 100

Next, values leading:

Emax [%] | Compound
25 to 100 | COc1ccc(C)cc1NC(=O)c1c[nH]c2ccccc2c1=O [Compound 120, N-(2-methoxy-5-methyl-phenyl)-4-oxo-1H-quinoline-3-carboxamide]
25 to 100 | CN(C)[C@@H]1CCN(c2ccc(NC(=O)c3c[nH]c4ccccc4c3=O)c(C(F)(F)F)c2)C1 [Compound 534, (R)-N-(4-(3-(dimethylamino)pyrrolidin-1-yl)-2-(trifluoromethyl)phenyl)-4-oxo-1,4-dihydroquinoline-3-carboxamide]
25 to 100 | CCOC(=O)[C@H]1CCCN(c2ccc(NC(=O)c3c[nH]c4ccccc4c3=O)c(C(F)(F)F)c2)C1 [Compound 660, (S)-ethyl 1-(4-(4-oxo-1,4-dihydroquinoline-3-carboxamido)-3-(trifluoromethyl)phenyl)piperidine-3-carboxylate]
25 to 100 | CCc1cc(C#N)ccc1NC(=O)c1c[nH]c2ccccc2c1=O [Compound 451, N-(4-cyano-2-ethyl-phenyl)-4-oxo-1H-quinoline-3-carboxamide]
25 to 100 | N#Cc1cccc(NC(=O)c2c[nH]c3ccccc3c2=O)c1 [Compound 447, N-(3-cyanophenyl)-4-oxo-1H-quinoline-3-carboxamide]
< 25 | COc1ccc(NC(C)=O)cc1NC(=O)c1c[nH]c2ccccc2c1=O [Compound 250, N-(5-acetylamino-2-methoxy-phenyl)-4-oxo-1H-quinoline-3-carboxamide]
25 to 100 | CC(C)c1ccc(NC(=O)c2c[nH]c3ccccc3c2=O)c(C(F)(F)F)c1 [Compound 47, N-[4-isopropyl-2-(trifluoromethyl)phenyl]-4-oxo-1H-quinoline-3-carboxamide]
25 to 100 | O=C(Nc1cc2[nH]ccc2cc1F)c1c[nH]c2ccccc2c1=O [Compound 77, N-(5-fluoro-1H-indol-6-yl)-4-oxo-1H-quinoline-3-carboxamide]
25 to 100 | CC(C)(C)c1cc(C#N)c(NC(=O)c2c[nH]c3ccccc3c2=O)cc1O [Compound 476, N-(4-tert-Butyl-2-cyano-5-hydroxyphenyl)-1,4-dihydro-4-oxoquinoline-3-carboxamide]
25 to 100 | CCOC(=O)Nc1cc(NC(=O)c2c[nH]c3ccccc3c2=O)ccc1C(C)C [Compound 225, [2-isopropyl-5-[(4-oxo-1H-quinolin-3-yl)carbonylamino]phenyl]aminoformic acid ethyl ester]
25 to 100 | COc1cccc(NC(=O)c2c[nH]c3ccccc3c2=O)c1 [Compound 408, N-(3-methoxyphenyl)-4-oxo-1H-quinoline-3-carboxamide]
25 to 100 | Cc1cccc(NC(=O)c2c[nH]c3ccccc3c2=O)c1 [Compound 449, N-(m-tolyl)-4-oxo-1H-quinoline-3-carboxamide]
25 to 100 | COC(=O)Nc1cc(NC(=O)c2c[nH]c3ccccc3c2=O)ccc1C(C)(C)C [Compound 14, [5-[(4-oxo-1H-quinolin-3-yl)carbonylamino]-2-tert-butyl-phenyl]aminoformic acid methyl ester]
